Test results reported in US11056705B2, “Organic anolyte materials for flow batteries” (THE REGENTS OF THE UNIVERSITY OF MICHIGAN, priority 2015, dated 2021).
Marks after values point to notes of the source that are not given here.

Columns and labels:
[1] = Cyclic voltammetry (CV) of anolyte candidates in a three-electrode cell; type: physicochemical; details: for ipc1/ipa1 (100 mV/s) / ipc1/ipa1 (10 mV/s) / E1^0: 0.01M substrate, 0.10M support; for ipc1/ipa1 (100 mV/s) / ipc1/ipa1 (10 mV/s): 2nd cycle; for E1^0: Ag/Ag+ reference, (E1c+E1a)/2, — = no anodic current observed; for reversibility of redox couple: 10 mV/s (slower scan rates); for current peak-height ratios: low potential couples in TBABF4 supports; for reduction within the electrochemical window of MeCN: MeCN with NBu4BF4; for reversibility of reduction: scan rate not specified; for reduction potential: MeCN with NBu4BF4 (TBABF4) supporting electrolyte, versus Ag/Ag+
Method: The electrochemistry of a series of heteroarenes was evaluated by cyclic voltammetry (CV). Electrochemical analysis was performed in the absence of oxygen and moisture. The experiments were conducted in a three-electrode cell comprised of a glassy carbon working electrode, a platinum counter electrode, and a Ag/Ag^+ reference electrode. The CV of each anolyte candidate was initially conducted in acetonitrile (MeCN) with tetrabutylammonium tetrafluoroborate (TBABF4) as the supporting electrolyte.
The reversibility of each redox couple in the CV was estimated by calculating the ratio of the diffusion-limited peak-heights of the cathodic (ipc) and anodic (ipa) currents (FIG. 2). The current peak heights were determined from the second CV cycle, and are all reported following deconvolution of the current-potential plot. […] In addition, […] conducted at slow scan rates allows for an extended lifetime of the reduced species (FIG. 2, 10 mV/s scan). With longer lifetimes, the concentration of charged anolytes that are susceptible to irreversible chemical or electrochemical reactions will decrease, and lower current responses upon re-oxidation will be observed. As a result, redox couples measured at slow scan rates generally occur with current peak-height ratios that deviate from unity to a greater extent than couples measured at faster scan rates. Thus, these techniques provide a method to rapidly assess and compare a range of anolyte materials.

[2] = as above; type: physicochemical; details: for ipc1/ipa1 (10 mV/s) / ipc2/ipa2 (10 mV/s) / ipc1/ipa1 (100 mV/s): 2nd cycle; for ipc2/ipa2 (10 mV/s): second couple; for reversibility of redox couple: MeCN/TBABF4
[3] = MeCN/LiBF4, 0.01M substrate, 0.10M support
[4] = MeCN/LiBF4, 0.01M substrate, 0.10M support, (E1c+E1a)/2, — = no anodic current observed
[5] = MeCN/LiBF4, 0.01M substrate, 0.10M support, (E2c+E2a)/2
[6] = MeCN/LiBF4, CV measured at 200 mV/s scan rate
[7] = PC/LiBF4, 0.01M substrate, 0.10M support
[8] = PC/TBABF4, 0.01M substrate, 0.10M support

| SMILES | ipc1/ipa1 (100 mV/s) ([1]; MeCN/LiBF4) | ipc1/ipa1 (10 mV/s) [2, 3] | E1^0 [2, 4] | ipc1/ipa1 (10 mV/s) ([1]; MeCN/TBABF4) | ipc1/ipa1 (100 mV/s) ([1]; MeCN/TBABF4) | E1^0 ([1]; MeCN/TBABF4) | further results |
| --- | --- | --- | --- | --- | --- | --- | --- |
| CC(C)OC(=O)c1cc[n+]([B-](F)(F)F)cc1 [Compound 5c] | 1.06 | 1.09 | −1.80 V | – | – | – | – |
| CC(C)OC(=O)c1cc[n+]([O-])cc1 [Compound 4c] | >5 | >5 | – | – | – | – | – |
| CC[n+]1ccc(C(=O)OC(C)(C)C)cc1 [Compound 7d] | – | 0.99 | −1.15 V | – | – | – | ipc2/ipa2 (10 mV/s) [2, 3]: 0.93; E2^0 [2, 5]: −1.93 V; E1^0 [2, 6]: −1.14 V; E2^0 [2, 6]: −1.92 V; ipc1/ipa1 [2, 6]: 1.09^f; ipc2/ipa2 [2, 6]: 1.38^f |
| COC(=O)c1ccccn1 [Compound 1a, Methyl picolinate] | – | – | – | >5 | 1.83 | −2.36 V | reversibility of redox couple ([1]; MeCN/TBABF4): completely irreversible; reversibility of redox couple ([2]; 100 mV/s): quasi-reversible |
| CC(C)(C)OC(=O)c1cc[n+]([B-](F)(F)F)cc1 [Compound 5d] | 1.06 | 1.11 | −1.84 V | 1.05 | 1.03 | −1.45 V | current peak-height ratios [1]: approaching unity; re-oxidation after the second reduction ([2]; LiBF4 supporting electrolyte, 100 mV/s, scanned to more negative potentials): Minimal re-oxidation |
| Cc1ccccn1 [2-methylpyridine, reference compound] | – | – | – | – | – | – | reduction within the electrochemical window of MeCN [1]: no reduction was observed |
| CCOC(=O)c1cc[n+](CC)cc1 [Compound 7b] | – | 0.99 | −1.11 V | – | – | – | ipc2/ipa2 (10 mV/s) [2, 3]: 0.96; E2^0 [2, 5]: −1.90 V |
| COc1ccccn1 [2-methoxypyridine, reference compound] | – | – | – | – | – | – | reduction within the electrochemical window of MeCN [1]: no reduction was observed |
| COC(=O)c1cccnc1 [Compound 2a, methyl nicotinate] | – | – | – | >5 | >5 | – | reversibility of reduction ([1]; MeCN/TBABF4): No re-oxidation current was observed |
| CC(C)(C)OC(=O)c1ccncc1 [Compound 3d] | – | – | – | 1.09 | 1.01 | −2.24 V | reversible reduction processes ([2]; LiBF4 support, scan rates between 10 and 500 mV/s, acetonitrile or propylene carbonate): No reversible reduction processes were observed |
| CCOC(=O)c1cc[n+](CC)cc1.[I-] [Compound 6b] | – | 0.98 | −1.10 V | – | – | – | ipc2/ipa2 (10 mV/s) [2, 3]: 0.94; E2^0 [2, 5]: −1.86 V |
| O=C(OC(C(F)(F)F)C(F)(F)F)c1ccncc1 [Compound 3h] | – | – | – | >5 | >5 | – | reduction potential [1]: approximately −2.0 V; reversibility of reduction ([1]; MeCN/TBABF4): highly irreversible |
| O=C(OCC(F)(F)F)c1ccncc1 [Compound 3g] | – | – | – | >5 | 1.91 | −2.03 V | reduction potential [1]: approximately −2.0 V; reversibility of reduction ([1]; MeCN/TBABF4): highly irreversible |
| N#CCOC(=O)c1ccncc1 [Compound 3f] | – | – | – | >5 | >5 | – | reduction potential [1]: approximately −2.0 V; reversibility of reduction ([1]; MeCN/TBABF4): highly irreversible |
| CC[n+]1ccc(C(=O)OC)cc1 [Compound 8a] | – | 0.98 | −1.11 V | – | – | – | ipc2/ipa2 (10 mV/s) [2, 3]: 0.95; E2^0 [2, 5]: −1.89 V |
| CC(C)OC(=O)c1ccncc1 [Compound 3c] | – | – | – | 1.10 | 1.02 | −2.20 V | – |
| COc1ccncc1 [4-methoxypyridine, reference compound] | – | – | – | – | – | – | reduction within the electrochemical window of MeCN [1]: no reduction was observed |
| COC(=O)c1cc[n+]([O-])cc1 [Compound 4a] | >5 | >5 | – | 1.41 | 1.05 | −1.96 V | – |
| CN(C)C(=O)c1ccncc1 [Compound 3e] | – | – | – | >5 | 1.18 | −2.52 V | reversibility of redox couple ([1]; MeCN/TBABF4): irreversible; reversibility of redox couple ([2]; 100 mV/s): quasi-reversible |
| COc1ccnc(-c2cc(OC)ccn2)c1 [4,4′-methoxy bipyridine, reference compound] | – | – | – | – | – | – | reduction potential [1]: −2.6 V; reversibility of reduction ([1]; MeCN/TBABF4): reversibly |
| CC[n+]1ccc(C(=O)OC(C)C)cc1 [Compound 7c] | – | 0.97 | −1.13 V | – | – | – | ipc2/ipa2 (10 mV/s) [2, 3]: 0.95; E2^0 [2, 5]: −1.89 V |
| COC(=O)c1cc[n+]([B-](F)(F)F)cc1 [Compound 5a] | 1.02 | 1.06 | −1.83 V | 1.10 | 1.03 | −1.42 V | current peak-height ratios [1]: approaching unity |
| CC[n+]1ccc(C(=O)OC)cc1 [Compound 7a] | – | 0.98 | −1.11 V | – | – | – | high potential peak ([1]; MeCN, TBABF4 as the electrolyte): no high potential peak is observed; anodic peak with no corresponding cathodic current ([2]; MeCN, 0.1 M LiBF4, 200 mV/s, +1 V to −2.5 V): +0.4 V; ipc2/ipa2 (10 mV/s) [2, 3]: 0.96; E2^0 [2, 5]: −1.88 V; E1^0 [2, 6]: −1.12 V; ipc1/ipa1 [2, 6]: 1.02^f; ipc2/ipa2 [2, 6]: 1.08^f; current peaks at positive potentials ([2]; MeCN/LiBF4, lower scanning limit −1.4 V or −0.5 V): no current peaks were observed; high potential peak ([2]; MeCN, LiTFSI as the support): only a small high potential peak |
| CC[n+]1ccc(C(=O)OC)cc1.[I-] [Compound 6a] | – | 0.99 | −1.11 V | – | – | – | ipc2/ipa2 (10 mV/s) [2, 3]: 0.95; E2^0 [2, 5]: −1.85 V |
| Cc1ccncc1 [4-methylpyridine, reference compound] | – | – | – | – | – | – | reduction within the electrochemical window of MeCN [1]: no reduction was observed |
| CCOC(=O)c1cc[n+]([O-])cc1 [Compound 4b] | >5 | >5 | – | – | – | – | – |
| COC(=O)c1ccncc1 [Compound 3a, methyl isonicotinate] | >5 | >5 | – | 1.67 | 1.15 | −2.16 V | reversibility of redox couple ([1]; MeCN/TBABF4): reversible; ipc1/ipa1 (10 mV/s) [2, 7]: >5; ipc1/ipa1 (100 mV/s) [2, 7]: >5; E1^0 [2, 8]: −2.62 V; ipc1/ipa1 (10 mV/s) [2, 8]: 2.02; ipc1/ipa1 (100 mV/s) [2, 8]: 1.35 |
| CC(C)(C)OC(=O)c1cc[n+]([O-])cc1 [Compound 4d] | >5 | >5 | – | 1.17 | 1.00 | −2.01 V | – |
| CCOC(=O)c1cc[n+]([B-](F)(F)F)cc1 [Compound 5b] | 1.06 | 1.08 | −1.80 V | – | – | – | – |
| CCOC(=O)c1ccncc1 [Compound 3b] | – | – | – | 1.28 | 1.03 | −2.20 V | – |
